{"source": "paper PMC4559766", "about": "(Scientific Reports, 2015)", "key": {"Du145 transplanted tumor [1]": {"test_system": "Du145 transplanted tumor", "assay": "Subcutaneous Du145 transplanted tumor in nude mice", "type": "in vivo, BALB/c-nu/nu nude mice", "settings": "tail vein once a day for 4 weeks", "experimental": "Thirty male 4-week-old BALB/c-nu/nu nude mice (17–19 g), were divided into five groups. CK group (blank control) was the mice which were not inoculated Du145 cells, and the remaining four groups received inoculation of Du145 cells. 0.2 ml of Du145 cells suspension with the concentration of 1.5 × 10^7 cells/ml was injected subcutaneously into the right side of back of nude mice. […] The weights and volumes of tumors in different groups were measured once every four days, and tumor growth curves for each group were plotted."}, "Du145 transplanted tumor [2]": {"test_system": "Du145 transplanted tumor", "assay": "Microvessel density of removed tumors (anti-CD31 immunohistochemistry, Weidner method)", "type": "in vivo, BALB/c-nu/nu nude mice", "settings": "tumors removed after 4 weeks of administration, anti-CD31, n = 6", "experimental": "Four weeks after administration, the mice were executed, and the tumors of different groups were removed and fixed with 10% neutral formalin or 2.5% glutaraldehyde. The fixed tumor tissue slides were subjected to Hematoxylin-eosin (HE) staining, immunohistochemistry in which anti-CD31 antibody and biotin-labeled IgG were respectively used as the first and second antibody, and TEM analysis. The microvessel densitied (MVD) in different tumor tissues was calculated using the Weidner method."}, "[3]": {"assay": "Blood biochemical indexes of liver and kidney function in tumor-bearing nude mice", "settings": "serum at end of 4 weeks of administration, n = 6", "description": "(§1) The blood was collected and centrifuged at the end of administration for 4 weeks. The serum was placed into eppendorf (EP) tube and immediately sent to the First Affiliated Hospital of Jinan University where several tests closely related to liver/kidney function were performed, and the blood biochemical indexes AST, ALT, AST/ALT, ALB, GLB, ALB/GLB, DBILI, IBILI, TBILI, BUN and CREA were obtained."}, "[4]": {"settings": "mouse, in vivo", "description": "(§2) Blood samples were collected by eye bleed from three mice at per time point prior to dosing and from 0.5 to 24 hours postdosing, and the plasma portion was analyzed by using an electrospray ionization, LC/MS/MS method described previously[48]. […] Tri (2-carboxyethyl) phosphine hydrochloride (TCEP) was used as a reducing agent to enhance peptide recovery and was added to all samples at a final concentration of 2 mM. After removing the plasma proteins through adding acetonitrile and centrifugation, the supernatant was transferred to another 96-well plate. Samples were analyzed by LC/MS/MS. Pharmacokinetic parameters were fitted to a two-compartment elimination model, and drug exposure (AUC), elimination half-life (t1⁄2), volume of distribution (Vd) and the clearance (CL) were calculated using WinNonlin Ver."}, "[5]": {"settings": "mouse, in vivo", "remark": "listed apart in the source", "description": "as §1"}, "in vivo": {"assay": "in vivo", "settings": "BALB/c, mouse, iv, 5 mg/kg", "description": "as §2"}, "HSA": {"target": "T1, HSA (Homo sapiens, UniProt P02768)", "T1 construct": "purchased Sigma", "T1 sequence (P02768 25-609)": "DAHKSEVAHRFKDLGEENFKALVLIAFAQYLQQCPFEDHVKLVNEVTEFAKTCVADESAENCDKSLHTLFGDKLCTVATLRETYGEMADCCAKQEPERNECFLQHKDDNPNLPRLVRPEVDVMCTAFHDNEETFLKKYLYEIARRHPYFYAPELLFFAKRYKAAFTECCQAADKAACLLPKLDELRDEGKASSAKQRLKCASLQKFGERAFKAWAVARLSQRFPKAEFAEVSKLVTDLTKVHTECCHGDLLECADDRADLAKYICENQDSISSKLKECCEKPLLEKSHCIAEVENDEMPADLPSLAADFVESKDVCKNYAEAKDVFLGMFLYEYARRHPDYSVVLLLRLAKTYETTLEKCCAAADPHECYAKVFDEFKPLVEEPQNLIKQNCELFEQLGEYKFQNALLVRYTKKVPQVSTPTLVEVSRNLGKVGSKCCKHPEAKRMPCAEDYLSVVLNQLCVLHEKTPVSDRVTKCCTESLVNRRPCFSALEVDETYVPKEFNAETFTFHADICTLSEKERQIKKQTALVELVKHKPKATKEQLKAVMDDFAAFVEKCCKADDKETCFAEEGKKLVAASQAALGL", "assay": "Phage ELISA of 7-mer peptides for serum albumin binding", "experimental": "HSA or MSA were dissolved with 0.1 M NaHCO3 to obtain a solution at 100 μg/ml. The obtained solutions were loaded to each row of wells of enzyme-linked immunosorbent assay (ELISA) multiple-well plate, and the plates were blocked with 1% casein in NaHCO3. Each selected phage clone to be identified was subject to 4-fold serial dilution to allow 10^12 phage particles in the first well and 2.4 × 10^5 phage particles in the twelfth well. Each row of the diluted phages was transferred into the plate coated with HSA or MSA by using a mutichannel pipettor, and the plate was incubated at 25 °C for 1.5 hours. After the microtiter plate was repeatedly washed with TBST, bound phages were detected by incubation with Rabbit anti-M13 phage antibody and HRP-conjugated goat anti-rabbit IgG. ABTS/H2O2 substrate was used to measure the amount of HRP bound and monitor the absorbance at 405 nm."}}, "note": "Where two headings read alike, the source gives them in different places. Peptide text beside a SMILES is read from it."}
{"molecule": "C[C@]12CC[C@@H]3c4ccc(OC(=O)N(CCCl)CCCl)cc4CC[C@H]3[C@@H]1CC[C@@H]2O", "note": "[Estramustine]", "values": [{"measurement": "body weight change of treated mice", "setting": "Du145 transplanted tumor [1]; 40 nM RMP16, estramustine 60 mg/kg", "value": "reduced obviously"}, {"measurement": "tumor inhibition rate", "setting": "Du145 transplanted tumor [1]; 0.1 ml of 40 nM RMP16 or P16, estramustine 60 mg/kg, by average tumor weight versus NaCl group, n = 6", "value": 83.03, "unit": "%"}, {"measurement": "microvessel density (MVD)", "setting": "Du145 transplanted tumor [2]", "value": "8.6 ± 0.83"}, {"measurement": "ALB", "setting": "[3]", "value": "15.2 ± 0.6", "unit": "g/L"}, {"measurement": "ALB/GLB", "setting": "[3]", "value": "0.36 ± 0.02"}, {"measurement": "ALT", "setting": "[3]", "value": "81.5 ± 12.5", "unit": "U/L"}, {"measurement": "AST", "setting": "[3]", "value": "161 ± 18", "unit": "U/L"}, {"measurement": "AST/ALT", "setting": "[3]", "value": "1.99 ± 0.09"}, {"measurement": "CREA", "setting": "[3]", "value": "4 ± 0.3", "unit": "µM"}, {"measurement": "DBILI", "setting": "[3]", "value": "3.7 ± 0.4", "unit": "µM"}, {"measurement": "GLB", "setting": "[3]", "value": "42.1 ± 3.7", "unit": "g/L"}, {"measurement": "IBILI", "setting": "[3]", "value": "7.7 ± 0.2", "unit": "µM"}, {"measurement": "TBILI", "setting": "[3]", "value": "11.4 ± 0.2", "unit": "µM"}]}
{"molecule": "CC[C@H](C)[C@H](NC(=O)[C@H](CCCNC(=N)N)NC(=O)[C@H](CO)NC(=O)[C@@H](NC(=O)[C@@H](NC(=O)[C@H](Cc1c[nH]cn1)NC(=O)[C@@H](NC(=O)[C@H](CC(C)C)NC(=O)[C@@H](N)CC(C)C)[C@@H](C)O)[C@@H](C)O)[C@@H](C)CC)C(=O)N[C@@H](C)C(=O)N[C@H](C(=O)N[C@@H](CO)C(=O)N[C@@H](Cc1ccc(O)cc1)C(=O)N[C@@H](CCC(N)=O)C(=O)N[C@H](C(=O)N[C@@H](CCCCN)C(=O)N[C@H](C(=O)N[C@@H](CC(N)=O)C(=O)N[C@@H](CC(C)C)C(=O)N[C@@H](CC(C)C)C(=O)O)C(C)C)[C@@H](C)O)C(C)C", "note": "[P16] (H-LLTHTISRIAVSYQTKVNLL-OH)", "values": [{"measurement": "half-life", "setting": "[4]", "value": 5.77, "unit": "min"}, {"measurement": "ALB", "setting": "[5]", "value": "17.25 ± 1.35", "unit": "g/L"}, {"measurement": "ALB/GLB", "setting": "[5]", "value": "0.45 ± 0.02"}, {"measurement": "ALT", "setting": "[5]", "value": "131.5 ± 24.5", "unit": "U/L"}, {"measurement": "AST", "setting": "[5]", "value": "188.5 ± 29.5", "unit": "U/L"}, {"measurement": "AST/ALT", "setting": "[5]", "value": "1.45 ± 0.05"}, {"measurement": "BUN", "setting": "[5]", "value": "10.63 ± 0.35"}, {"measurement": "CREA", "setting": "[5]", "value": "9.5 ± 0.5", "unit": "µM"}, {"measurement": "DBILI", "setting": "[5]", "value": "3.85 ± 0.25", "unit": "µM"}, {"measurement": "GLB", "setting": "[5]", "value": "41.75 ± 1.45", "unit": "g/L"}, {"measurement": "IBILI", "setting": "[5]", "value": "9.75 ± 0.45", "unit": "µM"}, {"measurement": "TBILI", "setting": "[5]", "value": "13.6 ± 0.2", "unit": "µM"}, {"measurement": "AUC", "setting": "in vivo", "value": 12300, "unit": "ng·h/mL"}, {"measurement": "Vd", "setting": "in vivo", "value": 0.0561, "unit": "L/kg"}, {"measurement": "clearance", "setting": "in vivo", "value": 6.75, "unit": "mL/min/kg"}, {"measurement": "half-life", "setting": "in vivo", "value": 5.76, "unit": "min"}]}
{"molecule": "WQRPSSW", "values": [{"measurement": "binding affinity to HSA compared with MSA", "setting": "HSA; phage ELISA, plates coated with HSA or MSA", "value": "slightly higher than that of mouse serum albumin"}, {"measurement": "HSA-binding affinity of phage-encoded 7-mer peptide", "setting": "HSA; sandwich immunoassay (ELISA), 4-fold serial dilution from 10^12 phage particles, absorbance at 405 nm", "value": "much higher HSA-binding affinity than HLYWQRP"}]}
